Experimental data as given in patent US5900434A, “Method for inhibiting the production of interleukin-1 or tumor necrosis factor-α by administering acanthoic acid” (Korea Institute of Science and Technology, priority 1994, dated 1999).

Assays:
[1] = tested on: human monocytes and macrophages; assay: Cytotoxicity on human monocytes and macrophages (MTT); assay type: cell-based; conditions: concentration lower than 10 μg/ml
Procedure: Normal human peripheral blood was heparin-treated and diluted with equal amount of Hank's balanced salt solution (HBSS: Ca^2+ and Mg^2+ free). The diluted blood was put into a centrifuge tube containing therein Ficoll-Hypaque(Sigma, St. Louis, Mo., U.S.A.) layer having a density of 1.077 piled up on Ficoll-Hypaque layer having a density of 1.119, and then centrifuged at 700×g for 30 minutes to obtain monocytes from the layer between Ficoll-Hypaque layer having a density of 1.077 and serum layer, and neutrophils from the layer between Ficoll-Hypaque layer having a density of 1.077 and that having a density of 1.119. The separated cells were washed twice with 4° C. HBSS(Ca^2+ and Mg^2+ free) and suspended in RPMI 1640 medium(Gibco, Grand Island, N.Y., U.S.A.) containing 10% fetal bovine serum(FBS, Hyclone, Logan, Utah, U.S.A.). The suspensions were added to the wells of 24-well incubation plate(Costar, Cambridge, Mass., U.S.A.) and incubated at 37° C. for 2 hours to obtain monocytes, macrophages and neutrophils. […] The cytotoxicity of acanthoic acid was determined by the following procedures. […] 100 μl each of acidified isopropanol(0.04N HCl in isopropanol) was added to the cells in each well to elute formazan produced by the living cells, and optical density (O.D.) was determined at 540 nm by using an ELISA reader (Titertek multiskan Mcc/340)(FIG. 1). […]

[2] = tested on: H2O2 production in human monocytes and macrophages; assay: Production of H2O2 in silica-stimulated human monocytes and macrophages; assay type: cell-based; conditions: 10 μg/ml, 1 hour, 100 μg/ml silica, FIG. 5
Procedure: Normal human peripheral blood was heparin-treated and diluted with equal amount of Hank's balanced salt solution (HBSS: Ca^2+ and Mg^2+ free). The diluted blood was put into a centrifuge tube containing therein Ficoll-Hypaque(Sigma, St. Louis, Mo., U.S.A.) layer having a density of 1.077 piled up on Ficoll-Hypaque layer having a density of 1.119, and then centrifuged at 700×g for 30 minutes to obtain monocytes from the layer between Ficoll-Hypaque layer having a density of 1.077 and serum layer, and neutrophils from the layer between Ficoll-Hypaque layer having a density of 1.077 and that having a density of 1.119. The separated cells were washed twice with 4° C. HBSS(Ca^2+ and Mg^2+ free) and suspended in RPMI 1640 medium(Gibco, Grand Island, N.Y., U.S.A.) containing 10% fetal bovine serum(FBS, Hyclone, Logan, Utah, U.S.A.). […] The amount of H2 O2 was determined by a microassay employing 96-well microplate as follows. […] When the incubation was completed, 3M NaOH was added to the wells in an amount of 25 μl/well to stop the reaction and O.D. was measured at 620 nm by using ELISA reader(Dynatech Lab. Inc.) to determine the change of colors with respect to the oxidation of phenol. The amount of H2 O2 was determined by employing a standard curve prepared by diluted H2 O2 (Sigma). […]

rat hepatocirrhosis = assay: CCl4-induced hepatocirrhosis in rat, liver histology; assay type: in vivo, Sprague-Dawley rat; conditions: 0.2 ml orally twice a week, 13 weeks, FIG. 11, E = CCl4 + methanol extract, F = CCl4 + acanthoic acid
Description: Hepatocirrhosis(hepatic sclerosis) is characterized by the fibrosis of whole liver, complete disruption of liver parenchyma by fibrous septa, and formation of regenerative nodules. It is derived mostly from a chronic hepatitis or chronic alcoholism, however, the precise causes thereof are unknown. In a hepatocirrhosis patient, the amount of cytokines, e.g., TNF-α, which is involved in inflammation and fibrosis, is in an increased state; and, therefore, the inhibition of hepatocirrhosis by acanthoic acid may be determined by the inhibitory activity to TNF-α. To induce the experimental hepatocirrhosis in accordance with the method of Nakataukasa, H., et al. as described in J. Clin. Invest., 85, 1833-1843(1990), 1.0 ml/100 g of body weight of CCl4 solution(50% CCl4 +50% corn oil) was injected intraperitoneally to 4 week old male Sprague-Dawley rats twice a week, and 0.2 ml each of methanol extract of A. koreanum Nakai and acanthoic acid was administered orally at the time of the injection of CCl4 twice a week. After 13 weeks from the start of the test, each of the rats was anesthetized with ether and the blood samples were obtained from the heart to determine serum glutamic-oxaloacetic transaminase(sGOT) value and serum glutamic-pyruvic transaminase(sGPT) value(FIG. 10). […]

leukocyte migration = conditions: cited from earlier work

C=C[C@@]1(C)CC=C2C(CCC3[C@](C)(C(=O)O)CCC[C@@]23C)C1 (single isomer, unassigned; (-)) [acanthoic acid, (-)-pimara-9(11),15-diene-19-oic acid]
cytotoxicity [1]: no cytotoxicity | amount of H2O2 [2]: decrease significantly | liver histology, effect on hepatocirrhosis (rat hepatocirrhosis): the inhibitory effect on the hepatocirrhosis is lower than that of E | inhibition of leukocyte migration (leukocyte migration): inhibit the leukocyte migration
